From patent publication US8841294B2, “Active ingredient combinations having insecticidal and acaricidal properties” (Bayer Cropscience AG, priority 1999, dated 2014)

Tests used:
Format in all cases: in vivo
[1] = system: larvae of the peach aphid (Myzus persicae); test: Myzus test/larval mortality; details: single active compound, 0.32 ppm, cabbage leaves dipped
Protocol: Myzus Test/Larval Mortality
(§1) To produce a suitable preparation of active compound, 1 part by weight of active compound is mixed with the stated amounts of solvent and emulsifier, and the concentrate is diluted with water to the desired concentrations.
Cabbage leaves (Brassica oleracea) which are heavily infested by adults and larvae of the peach aphid (Myzus persicae) are treated by being dipped into the preparation of active compound of the desired concentration.
After the desired period of time, the kill of the larvae in % is determined. 100% means that all larvae have been killed; 0% means that none of the larvae have been killed. The kill rates determined are assessed using Colby's formula.

[2] = system: peach aphid (Myzus persicae); test: Myzus test; details: single active compound, 1.6 ppm, cabbage leaves dipped
Protocol: as §1
Cabbage leaves (Brassica oleracea) which are heavily infested by the peach aphid (Myzus persicae) are treated by being dipped into the preparation of active compound of the desired concentration.
After the desired period of time, the kill in % is determined. 100% means that all animals have been killed; 0% means that none of the animals have been killed. The kill rates determined are assessed using Colby's formula.

[3] = system: larvae of the cotton aphid (Aphis gossypii); test: Aphis gossypii test/larval mortality; details: single active compound, 1.6 ppm, cotton leaves dipped
Protocol: Aphis Gossypii Test/Larval Mortality
as §1
Cotton leaves (Gossypium hirsutum) which are heavily infested by adults and larvae of the cotton aphid (Aphis gossypii) are treated by being dipped into the preparation of active compound of the desired concentration.
After the desired period of time, the kill of larvae in % is determined. 100% means that all larvae have been killed; 0% means that none of the larvae have been killed. The kill rates that are determined are assessed using Colby's formula.

[4] = system: cotton aphid (Aphis gossypii); test: Aphis gossypii test; details: single active compound, 1.6 ppm, cotton leaves dipped
Protocol: as §1
Cotton leaves (Gossypium hirsutum) which are heavily infested by the cotton aphid (Aphis gossypii) are treated by being dipped into the preparation of active compound of the desired concentration.
After the desired period of time, the kill in % is determined. 100% means that all aphids have been killed; 0% means that none of the aphids have been killed. The kill rates that are determined are assessed using Colby's formula.

SMILES	Kill rates in % after 1d (larvae) [1] [%]	Kill rates in % after 1d [2] [%]	Kill rate in % after 6d (larvae) [3] [%]	Kill rates in % after 6d [4] [%]
O=[N+]([O-])/N=C1\NCCN1Cc1ccc(Cl)nc1 [Ex. (IIa)]	0	70	80	85
N#C/N=C1\SCCN1Cc1ccc(Cl)nc1 [Ex. (IIk)]	–	–	60	55
CCC(C)(C)C(=O)OC1=C(c2ccc(Cl)cc2Cl)C(=O)OC12CCCCC2 [Ex. (Ia)]	0	0	0	0
